Results from patent US20120115845A1, “THERAPEUTIC AGENTS” (priority 2007, published 2012).

Columns and labels:
human GHS receptor [1] = target: T1, human GHS receptor (Homo sapiens, UniProt Q92847); assay: Ghrelin IP1 agonist assay (IP1 HTRF); assay type: cell-based; parameters: expressed in transfected cells; host or cells: HEK293s; details: for Emax: 2 h, agonist effect as % maximal effect of GHRP-6 (5 μM), read-out: h IP1 ag %; for EC50: HEK293s cells stably expressing human GHS receptor, 2 hours at 37° C., read-out: h IP1 ag EC50
T1 sequence (Q92847 whole entry): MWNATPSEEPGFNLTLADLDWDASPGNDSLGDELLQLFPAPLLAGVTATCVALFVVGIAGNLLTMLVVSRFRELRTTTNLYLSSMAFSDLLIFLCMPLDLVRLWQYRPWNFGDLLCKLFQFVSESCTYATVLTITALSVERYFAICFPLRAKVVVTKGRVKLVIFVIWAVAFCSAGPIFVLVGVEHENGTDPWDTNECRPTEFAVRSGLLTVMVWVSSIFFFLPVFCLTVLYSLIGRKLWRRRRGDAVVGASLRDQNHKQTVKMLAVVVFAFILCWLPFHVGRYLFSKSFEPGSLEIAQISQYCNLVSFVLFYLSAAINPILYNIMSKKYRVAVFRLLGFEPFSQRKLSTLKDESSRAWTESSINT
Procedure, shortened: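 Cells: HEK293s stably expressing human GHS receptor, in stimulation buffer containing 0.02% fatty acid free BSA.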

human GHS receptor [2] = target: T1, human GHS receptor; assay: h bind IC50 (binding assay, Table 1); details: human receptor; Table 1

SMILES | Emax (human GHS receptor [1]) [%] | EC50 (human GHS receptor [1]) [µM] | IC50 (human GHS receptor [2]) [µM]
O=C(NC(=O)c1ccccc1Cl)Nc1nc2ccc(S(=O)(=O)Cc3cccnc3)cc2s1 [Example 187, 2-Chloro-N-[[6-(pyridin-3-ylmethylsulfonyl)benzothiazol-2-yl]carbamoyl]benzamide] | 16.1 | 0.00595 | 0.0581
Cc1cc(CS(=O)(=O)c2ccc3nc(NC(=O)NC(=O)c4ccccc4Cl)sc3c2)no1 [Example 188, 2-Chloro-N-[[6-[(5-methyl-1,2-oxazol-3-yl)methylsulfonyl]benzothiazol-2-yl]carbamoyl]benzamide] | 16.4 | 0.0521 | 0.0538
O=C(NC(=O)c1ccccc1Cl)Nc1nc2ccc(S(=O)(=O)CCc3ccccn3)cc2s1 [Example 190, 2-Chloro-N-[[6-(2-pyridin-2-ylethylsulfonyl)benzothiazol-2-yl]carbamoyl]benzamide] | 21.3 | 0.0822 | 0.0519
O=C(NC(=O)c1ccccc1Cl)Nc1nc2ccc(S(=O)(=O)CCCn3ccnc3)cc2s1 [Example 193, 2-Chloro-N-[[6-(3-imidazol-1-ylpropylsulfonyl)benzothiazol-2-yl]carbamoyl]benzamide] | 30.6 | 0.0185 | 0.0259
Cc1ccc(Cl)c(C(=O)NC(=O)Nc2nc3ccc(S(C)(=O)=O)cc3s2)c1F [Example 195, 6-Chloro-2-fluoro-3-methyl-N-[(6-methylsulfonylbenzothiazol-2-yl)carbamoyl]benzamide] | 22.8 | 0.0329 | 0.114
CC(C)N1CCN(CCCS(=O)(=O)c2ccc3nc(NC(=O)NC(=O)c4ccccc4Cl)sc3c2)CC1 [Example 199, 2-Chloro-N-[[6-[3-(4-propan-2-ylpiperazin-1-yl)propylsulfonyl]benzothiazol-2-yl]carbamoyl]benzamide] | 42.2 | 0.00182 | 0.0022
CN(C)C1CCN(CCCS(=O)(=O)c2ccc3nc(NC(=O)NC(=O)c4ccccc4Cl)sc3c2)CC1 [Example 201, 2-Chloro-N-[[6-[3-(4-dimethylamino-1-piperidyl)propylsulfonyl]benzothiazol-2-yl]carbamoyl]benzamide] | 29.7 | 0.00454 | 0.0009
CN(C)CCCS(=O)(=O)c1ccc2nc(NC(=O)NC(=O)c3ccccc3Cl)sc2c1 [Example 202, 2-Chloro-N-[[6-(3-dimethylaminopropylsulfonyl)benzothiazol-2-yl]carbamoyl]benzamide] | 51.3 | 0.0134 | 0.0087
COCCNCCCS(=O)(=O)c1ccc2nc(NC(=O)NC(=O)c3ccccc3Cl)sc2c1 [Example 203, 2-Chloro-N-[[6-[3-(2-methoxyethylamino)propylsulfonyl]benzothiazol-2-yl]carbamoyl]benzamide] | 29.4 | 0.00622 | 0.0149
CN1CCCN(CCCS(=O)(=O)c2ccc3nc(NC(=O)NC(=O)c4ccccc4Cl)sc3c2)CC1 [Example 204, 2-Chloro-N-[[6-[3-(4-methyl-1,4-diazepan-1-yl)propylsulfonyl]benzothiazol-2-yl]carbamoyl]benzamide] | 36.2 | 0.00692 | 0.0012
CC(C)(C)OC(=O)N1CCN(CCCS(=O)(=O)c2ccc3nc(NC(=O)NC(=O)c4ccccc4Cl)sc3c2)CC1 [Example 205, tert-Butyl 4-[3-[2-[(2-chlorobenzoyl)carbamoylamino]benzothiazol-6-yl]sulfonylpropyl]piperazine-1-carboxylate] | 39.5 | 0.002 | 0.0053
O=C(NC(=O)c1ccccc1Cl)Nc1nc2ccc(S(=O)(=O)CCCN3CCNCC3)cc2s1 [Example 206, 2-Chloro-N-[[6-(3-piperazin-1-ylpropylsulfonyl)benzothiazol-2-yl]carbamoyl]benzamide] | 69 | 0.00958 | 0.0144
CS(=O)(=O)N1CCN(CCCS(=O)(=O)c2ccc3nc(NC(=O)NC(=O)c4ccccc4Cl)sc3c2)CC1 [Example 208, 2-Chloro-N-[[6-[3-(4-methylsulfonylpiperazin-1-yl)propylsulfonyl]benzothiazol-2-yl]carbamoyl]benzamide] | 30.7 | 0.0135 | 0.0181
CN1CCN(CCCCS(=O)(=O)c2ccc3nc(NC(=O)NC(=O)c4ccccc4Cl)sc3c2)CC1 [Example 210, 2-Chloro-N-[[6-[4-(4-methylpiperazin-1-yl)butylsulfonyl]benzothiazol-2-yl]carbamoyl]benzamide] | 51.5 | 0.00226 | 0.0022
CCN(CC)CCCCS(=O)(=O)c1ccc2nc(NC(=O)NC(=O)c3ccccc3Cl)sc2c1 [Example 211, 2-Chloro-N-[[6-(4-diethylaminobutylsulfonyl)benzothiazol-2-yl]carbamoyl]benzamide] | 27.7 | 0.00958 | 0.0536
CC(C)(C)OC(=O)NC1CC(S(=O)(=O)c2ccc3nc(NC(=O)NC(=O)c4ccccc4Cl)sc3c2)C1 (stereo not drawn) [Example 213, tert-Butyl N-[3-[2-[(2-chlorobenzoyl)carbamoylamino]benzothiazol-6-yl]sulfonylcyclobutyl]carbamate] | 12.9 | 0.0125 | 0.238
NC1CC(S(=O)(=O)c2ccc3nc(NC(=O)NC(=O)c4ccccc4Cl)sc3c2)C1 (stereo not drawn) [Example 214, N-[[6-(3-Aminocyclobutyl)sulfonylbenzothiazol-2-yl]carbamoyl]-2-chloro-benzamide] | 52.1 | 0.0124 | 0.0326
CNC1CC(S(=O)(=O)c2ccc3nc(NC(=O)NC(=O)c4ccccc4Cl)sc3c2)C1 (stereo not drawn) [Example 215, 2-Chloro-N-[[6-(3-methylaminocyclobutyl)sulfonylbenzothiazol-2-yl]carbamoyl]benzamide] | 50.2 | 0.023 | 0.0272
CN(C)C1CC(S(=O)(=O)c2ccc3nc(NC(=O)NC(=O)c4ccccc4Cl)sc3c2)C1 (stereo not drawn) [Example 216, 2-Chloro-N-[[6-(3-dimethylaminocyclobutyl)sulfonylbenzothiazol-2-yl]carbamoyl]benzamide] | 64.6 | 0.054 | 0.0368
CC(C)(C)OC(=O)N1CCC(CS(=O)(=O)c2ccc3nc(NC(=O)NC(=O)c4ccccc4Cl)sc3c2)CC1 [Example 217, tert-Butyl 4-[[2-[(2-chlorobenzoyl)carbamoylamino]benzothiazol-6-yl]sulfonylmethyl]piperidine-1-carboxylate] | 36.9 | 0.118 | 0.0704

More lines, in order of falling EC50 (human GHS receptor [1]), values ahead:

Emax (human GHS receptor [1]) [%] | EC50 (human GHS receptor [1]) [µM] | IC50 (human GHS receptor [2]) [µM] | SMILES
20.4 | 0.28 | 0.274 | O=C(NC(=O)c1ccccc1Cl)Nc1nc2ccc(S(=O)(=O)Cc3ncc[nH]3)cc2s1 [Example 189, 2-Chloro-N-[[6-(1H-imidazol-2-ylmethylsulfonyl)benzothiazol-2-yl]carbamoyl]benzamide]
15.5 | 0.0752 | 0.128 | Cc1nc(CS(=O)(=O)c2ccc3nc(NC(=O)NC(=O)c4ccccc4Cl)sc3c2)cs1 [Example 191, 2-Chloro-N-[[6-[(2-methyl-1,3-thiazol-4-yl)methylsulfonyl]benzothiazol-2-yl]carbamoyl]benzamide]
23.8 | 0.0513 | 0.0524 | COCCCS(=O)(=O)c1ccc2nc(NC(=O)NC(=O)c3ccccc3Cl)sc2c1 [Example 192, 2-Chloro-N-[[6-(3-methoxypropylsulfonyl)benzothiazol-2-yl]carbamoyl]benzamide]
42.2 | 0.0154 | 0.0124 | CC1CN(CCCS(=O)(=O)c2ccc3nc(NC(=O)NC(=O)c4ccccc4Cl)sc3c2)CCN1 (stereo not drawn) [Example 209, 2-Chloro-N-[[6-[3-(3-methylpiperazin-1-yl)propylsulfonyl]benzothiazol-2-yl]carbamoyl]benzamide]
32.1 | 0.011 | 0.0108 | CC(=O)N1CCN(CCCS(=O)(=O)c2ccc3nc(NC(=O)NC(=O)c4ccccc4Cl)sc3c2)CC1 [Example 198, N-[[6-[3-(4-Acetylpiperazin-1-yl)propylsulfonyl]benzothiazol-2-yl]carbamoyl]-2-chloro-benzamide]
39.4 | 0.00952 | 0.172 | Cc1ccc(F)c(C(=O)NC(=O)Nc2nc3ccc(S(C)(=O)=O)cc3s2)c1Cl [Example 194, 2-Chloro-6-fluoro-3-methyl-N-[(6-methylsulfonylbenzothiazol-2-yl)carbamoyl]benzamide]
41.4 | 0.00453 | 0.0027 | COCCN1CCN(CCCS(=O)(=O)c2ccc3nc(NC(=O)NC(=O)c4ccccc4Cl)sc3c2)CC1 [Example 200, 2-Chloro-N-[[6-[3-[4-(2-methoxyethyl)piperazin-1-yl]propylsulfonyl]benzothiazol-2-yl]carbamoyl]benzamide]
27.6 | 0.00203 | 0.0005 | Cc1ccn(-c2ccc(C(=O)NC(=O)Nc3nc4ccc(S(=O)(=O)CCCN5CCN(C)CC5)cc4s3)c(Cl)c2)n1 [Example 212, 2-Chloro-N-[[6-[3-(4-methylpiperazin-1-yl)propylsulfonyl]benzothiazol-2-yl]carbamoyl]-4-(3-methylpyrazol-1-yl)benzamide]
55.8 | 0.00202 | 0.0004 | CCN1CCN(CCCS(=O)(=O)c2ccc3nc(NC(=O)NC(=O)c4ccccc4Cl)sc3c2)CC1 [Example 197, 2-Chloro-N-[[6-[3-(4-ethylpiperazin-1-yl)propylsulfonyl]benzothiazol-2-yl]carbamoyl]benzamide]
79.4 | 0.000935 | 0.0015 | C[C@@H]1CN(CCCS(=O)(=O)c2ccc3nc(NC(=O)NC(=O)c4ccccc4Cl)sc3c2)C[C@H](C)N1 [Example 196, 2-Chloro-N-[[6-[3-[(3S,5R)-3,5-dimethylpiperazin-1-yl]propylsulfonyl]benzothiazol-2-yl]carbamoyl]benzamide]
